Data: ChEMBL document CHEMBL1201862, “PubChem BioAssay data set” (2004)
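Cells were grown in 96-well plates and exposed to each compound for 48 hours at five concentrations; endpoints were interpolated linearly between bracketing concentrations, or set to the highest concentration if not reached. Abbreviation: GI50, concentration required for 50% inhibition of growth.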 Calls of active or inactive are those of the source. Cut-off read from the data, not from the text of the source: active = GI50 up to about 1.1 µM and inactive = higher.

Experiments:
Test in all cases: DTP human tumour cell line panel, 48 h
NCI-H226 = test system: NCI-H226
SF-268 = test system: SF-268
Malme-3M = test system: Malme-3M
CAKI-1 = test system: CAKI-1
UACC-62 = test system: UACC-62
SNB-75 = test system: SNB-75
ACHN = test system: ACHN
SK-MEL-28 = test system: SK-MEL-28
IGROV-1 = test system: IGROV-1
SW-620 = test system: SW-620
HOP-18 = test system: HOP-18
NCI-H23 = test system: NCI-H23
K562 = test system: K562
HCC 2998 = test system: HCC 2998
A498 = test system: A498
SN12C = test system: SN12C
CCRF-CEM = test system: CCRF-CEM

Measured: GI50

COc1nc2c(nc(N)n2C2OC(CO)C(O)C(O)C2O)c(=O)n1C (centres undefined)
inactive: NCI-H226 > 100 µM | SF-268 > 100 µM | Malme-3M > 100 µM | CAKI-1 > 100 µM | UACC-62 > 100 µM | SNB-75 > 100 µM | ACHN > 100 µM | SK-MEL-28 > 100 µM | IGROV-1 > 100 µM | SW-620 > 100 µM | HOP-18 > 100 µM | NCI-H23 > 100 µM | K562 > 100 µM | HCC 2998 > 100 µM | A498 > 100 µM | SN12C > 100 µM | CCRF-CEM > 100 µM

O=C1O[C@@H](c2ccc3c(c2)OCO3)C2C(=O)O[C@@H](c3ccc4c(c3)OCO4)C12 (some centres undefined)
inactive: NCI-H226 > 100 µM | SF-268 > 100 µM | UACC-62 > 100 µM | SNB-75 83.6 µM | ACHN > 100 µM | SK-MEL-28 > 100 µM | IGROV-1 > 100 µM | SW-620 > 100 µM | HOP-18 > 100 µM | NCI-H23 > 100 µM | K562 > 100 µM | HCC 2998 > 100 µM | A498 > 100 µM | SN12C > 100 µM | CCRF-CEM > 100 µM

CNC(=S)/N=C(\N)N(C)C
inactive: NCI-H226 > 100 µM | SF-268 > 100 µM | Malme-3M > 100 µM | CAKI-1 > 100 µM | UACC-62 > 100 µM | SNB-75 > 100 µM | ACHN > 100 µM | SK-MEL-28 > 100 µM | IGROV-1 > 100 µM | SW-620 > 100 µM | HOP-18 > 100 µM | NCI-H23 > 10 µM | K562 > 100 µM | HCC 2998 > 100 µM | A498 > 100 µM | SN12C > 100 µM

CCCCCCCCCCCCOC(=S)NCCCC
inactive: NCI-H226 20.1 µM | SF-268 26.8 µM | Malme-3M 26.6 µM | UACC-62 16.7 µM | SNB-75 30.3 µM | ACHN 22.4 µM | SK-MEL-28 38 µM | IGROV-1 25.6 µM | SW-620 17.7 µM | HOP-18 28.1 µM | NCI-H23 23 µM | K562 19.3 µM | HCC 2998 18 µM | A498 20 µM | SN12C 19.9 µM | CCRF-CEM 27.5 µM

COc1ccccc1C1C(Cl)C(=O)N1NC(=O)Cc1ccccc1 (centres undefined)
inactive: NCI-H226 48.5 µM | SF-268 > 100 µM | Malme-3M 53.2 µM | CAKI-1 82.4 µM | UACC-62 83.2 µM | SNB-75 31.7 µM | ACHN > 100 µM | SK-MEL-28 > 100 µM | IGROV-1 > 100 µM | SW-620 52.4 µM | HOP-18 30.7 µM | NCI-H23 > 100 µM | K562 35.2 µM | HCC 2998 75.7 µM | SN12C > 100 µM | CCRF-CEM > 100 µM

CCOC(=O)NC(=O)c1cn(CCCCCCCCCCC(=O)NCCCN2CCN(CCCNC(=O)CCCCCCCCCCn3cc(C(=O)NC(=O)OCC)c(=O)[nH]c3=O)CC2)c(=O)[nH]c1=O
inactive: SF-268 > 100 µM | Malme-3M > 100 µM | CAKI-1 > 10 µM | UACC-62 > 100 µM | SNB-75 > 100 µM | ACHN > 100 µM | SK-MEL-28 > 100 µM | SW-620 > 100 µM | HOP-18 > 100 µM | NCI-H23 > 100 µM | K562 > 100 µM | HCC 2998 > 100 µM | A498 > 100 µM | SN12C > 100 µM | CCRF-CEM > 100 µM

CC1=C(/C=C/C(C)=C/C2CC(N(C)C)=CC(=O)O2)C(C)(C)CCC1 (centres undefined)
inactive: NCI-H226 11.9 µM | SF-268 21 µM | Malme-3M 14.4 µM | CAKI-1 22.2 µM | UACC-62 13.6 µM | SNB-75 17.7 µM | ACHN 12.1 µM | SK-MEL-28 16.2 µM | IGROV-1 14.8 µM | SW-620 16.2 µM | HOP-18 13.6 µM | NCI-H23 13.5 µM | K562 3.56 µM | HCC 2998 13.6 µM | A498 14.9 µM | SN12C 15.5 µM | CCRF-CEM 3.46 µM

Nc1nc(-c2ccc(Cl)c([N+](=O)[O-])c2)cs1
inactive: SF-268 86.5 µM | Malme-3M > 100 µM | CAKI-1 80 µM | UACC-62 > 100 µM | SNB-75 30.4 µM | ACHN > 100 µM | IGROV-1 > 100 µM | SW-620 > 100 µM | HOP-18 35.4 µM | NCI-H23 73.5 µM | K562 > 100 µM | HCC 2998 > 100 µM | A498 20 µM | SN12C > 100 µM | CCRF-CEM > 100 µM

C/C(=N\NC(N)=S)c1ccc(/C(C)=N/NC(N)=S)cc1
inactive: NCI-H226 > 100 µM | SF-268 > 100 µM | Malme-3M > 100 µM | UACC-62 > 100 µM | SNB-75 > 100 µM | ACHN > 100 µM | SK-MEL-28 > 100 µM | IGROV-1 > 100 µM | SW-620 > 100 µM | HOP-18 > 100 µM | NCI-H23 > 100 µM | K562 > 100 µM | HCC 2998 > 100 µM | A498 > 100 µM | SN12C > 100 µM | CCRF-CEM > 100 µM

COC(=O)C(CCC1(C)OCCO1)=[N+]=[N-]
inactive: NCI-H226 > 100 µM | SF-268 > 100 µM | Malme-3M > 100 µM | SNB-75 > 100 µM | ACHN > 100 µM | SK-MEL-28 > 100 µM | IGROV-1 > 100 µM | SW-620 > 100 µM | HOP-18 > 100 µM | NCI-H23 > 100 µM | K562 > 100 µM | HCC 2998 > 100 µM | A498 > 100 µM | SN12C > 100 µM | CCRF-CEM > 100 µM

CCOC(=O)C1=C(C)N(NC(=O)Nc2ccccc2)C(=O)C1=P(c1ccccc1)(c1ccccc1)c1ccccc1
inactive: NCI-H226 50 µM | SF-268 > 100 µM | Malme-3M 36.2 µM | CAKI-1 44.7 µM | UACC-62 25.6 µM | SNB-75 38 µM | ACHN 36.6 µM | IGROV-1 29.6 µM | SW-620 31 µM | HOP-18 58.1 µM | NCI-H23 41.6 µM | K562 26.6 µM | HCC 2998 47.2 µM | A498 29.5 µM | SN12C 28.1 µM | CCRF-CEM 26.1 µM

CCOC(=O)N(c1ccccc1)N(CC)C(=O)/C(C)=N/Nc1ccc([N+](=O)[O-])cc1
inactive: NCI-H226 22 µM | SF-268 17.2 µM | Malme-3M 17.6 µM | UACC-62 13.6 µM | SNB-75 18.1 µM | ACHN 17.7 µM | SK-MEL-28 17.3 µM | IGROV-1 17.3 µM | SW-620 19.3 µM | HOP-18 19.7 µM | NCI-H23 18 µM | K562 14.7 µM | HCC 2998 18 µM | A498 14.3 µM | SN12C 17.3 µM | CCRF-CEM 17.2 µM

COc1ccc(C(O)c2cc(OC)c(OC)c(OC)c2)cc1 (centres undefined)
inactive: NCI-H226 32.4 µM | SF-268 39 µM | Malme-3M 23.7 µM | CAKI-1 37.1 µM | UACC-62 8.91 µM | ACHN 69.8 µM | SK-MEL-28 72.1 µM | IGROV-1 18 µM | SW-620 6.85 µM | HOP-18 39 µM | K562 3.78 µM | A498 25.9 µM | SN12C 42.8 µM | CCRF-CEM 20 µM
